Source: publication PMC4883112 (Journal of medicinal chemistry, 2015)
In brackets after ≈: the same amount, converted by molar mass. Entries after “also recorded” stand apart in the source; their conditions may differ. Blank lines part the entries; values can stand above or below the molecule they belong to.

Assays:
[1] = test system: wild-type zebrafish (Danio rerio) embryos; experiment: Wild-type zebrafish embryo phenotype assay; settings: for Lethality in zebrafish embryos: concentration range < 60μM, added 24 hpf, compared at 96 and 120 hpf
[2] = Aqueous solubility, Shake-Flask method and HPLC; format: physicochemical; settings: water with 2% DMSO
GSK-3β = GSK-3β (Sus scrofa, UniProt B2LUN4); experiment: Commercial in vitro GSK-3β inhibition assay at single concentration; format: biochemical, porcine; settings: duplicates; for inhibition at 1 µM: read-out: GSK-3β Inhibition [%], 1 μM of compound
GSK-3α = GSK-3α (Sus scrofa, UniProt I6LNT8); experiment: Commercial in vitro GSK-3α inhibition assay at single concentration; format: biochemical, porcine; settings: read-out: GSK-3α Inhibition [%]
[3] = test system: Tyr216 GSK-3β phosphorylation; experiment: GSK-3β Tyr216 phosphorylation in AML cells; format: cell-based; settings: up to 20 μM; 24h treatment, NB4
GSK-3β (h) = GSK-3β (h) (Homo sapiens, UniProt P49841); experiment: IC50 determination GSK-3β; format: biochemical
[4] = test system: AML cell lines (HL-60 and NB4); experiment: AML differentiation; format: cell-based; settings: 6 days of treatment
NB4 and HL-60 cell lines = experiment: Methylcellulose colony formation; format: cell-based; settings: concentration-dependent
[5] = test system: Tyr279 GSK-3α phosphorylation; experiment: GSK-3α Tyr279 phosphorylation in AML cells; format: cell-based; settings: 24h treatment, increasing concentrations, NB4

Sequence of GSK-3β (B2LUN4 1-420): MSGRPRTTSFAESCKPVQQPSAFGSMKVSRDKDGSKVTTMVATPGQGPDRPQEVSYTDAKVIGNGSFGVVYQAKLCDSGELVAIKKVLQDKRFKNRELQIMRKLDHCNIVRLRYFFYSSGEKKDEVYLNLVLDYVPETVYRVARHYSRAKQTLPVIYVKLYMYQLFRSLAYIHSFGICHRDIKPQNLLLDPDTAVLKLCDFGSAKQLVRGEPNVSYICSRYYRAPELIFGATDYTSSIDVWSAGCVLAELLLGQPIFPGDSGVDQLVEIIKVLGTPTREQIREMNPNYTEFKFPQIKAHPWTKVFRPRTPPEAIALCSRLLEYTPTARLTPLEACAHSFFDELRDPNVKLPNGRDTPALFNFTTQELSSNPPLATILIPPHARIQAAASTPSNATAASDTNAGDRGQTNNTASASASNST
Sequence of GSK-3α (I6LNT8 1-483): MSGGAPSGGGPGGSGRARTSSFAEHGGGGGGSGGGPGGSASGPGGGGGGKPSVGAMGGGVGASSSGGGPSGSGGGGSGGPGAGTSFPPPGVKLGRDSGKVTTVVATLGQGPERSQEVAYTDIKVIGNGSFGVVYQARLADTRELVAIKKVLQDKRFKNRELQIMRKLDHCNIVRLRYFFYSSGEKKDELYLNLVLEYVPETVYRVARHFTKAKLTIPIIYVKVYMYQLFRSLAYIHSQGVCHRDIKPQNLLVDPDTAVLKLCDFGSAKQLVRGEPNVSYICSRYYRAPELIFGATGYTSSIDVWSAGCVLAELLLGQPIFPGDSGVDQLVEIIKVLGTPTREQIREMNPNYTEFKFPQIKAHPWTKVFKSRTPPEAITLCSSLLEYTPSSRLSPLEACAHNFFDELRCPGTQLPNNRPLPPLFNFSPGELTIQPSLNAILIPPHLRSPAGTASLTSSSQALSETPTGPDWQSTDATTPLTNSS
Sequence of GSK-3β (h) (P49841 whole entry): as the sequence (B2LUN4 1-420) above, with M40V, A59T, S392T, T400A, A402T, T411A counted along it

SMILES: N#Cc1ccc(-c2ccc(CSc3nnc(-c4ccc5c(c4)OCCO5)o3)cc2)nc1 [Compound 13d, 6-(4-((5-(2,3-Dihydrobenzo[b][1,4]dioxin-6-yl)-1,3,4-oxadiazol-2-ylthio)methyl)phenyl)-nicotinonitrile]
Lethality in zebrafish embryos [1]: no lethality
Effects on zebrafish embryo phenotype ([1]; in vivo): no effects
solubility [2]: 78 µg/mL (≈ 182 µM)

solubility [2]: < 1 µg/mL
SMILES: N#Cc1cc(F)ccc1-c1ccc(CSc2nnc(-c3ccc4c(c3)OCCO4)o2)cc1 [Compound 1, 4′-(((5-(2,3-Dihydrobenzo[b][1,4]dioxin-6-yl)-1,3,4-oxadiazol-2-yl)thio)methyl)-4-fluoro-[1,1′-biphenyl]-2-carbonitrile]

solubility [2]: < 1 µg/mL
SMILES: Fc1ccc(-c2ccc(CSc3nnc(-c4ccc5c(c4)OCCO5)o3)cn2)cn1 [Compound 18c, 2-(2,3-Dihydrobenzo[b][1,4]dioxin-6-yl)-5-(((6′-fluoro-[2,3′-bipyridin]-5-yl)methyl)thio)-1,3,4-oxadiazole]

inhibition at 1 µM (GSK-3β): 0%
SMILES: N#Cc1cc(F)ccc1-c1ccc(CSc2nnc(-c3ccc4nc[nH]c4c3)o2)cc1 [Compound 12a, 4′-(((5-(1H-Benzo[d]imidazol-6-yl)-1,3,4-oxadiazol-2-yl)thio)methyl)-4-fluoro-[1,1′-biphenyl]-2-carbonitrile]

solubility [2]: 7 µg/mL (≈ 16.6 µM)
SMILES: Fc1ccc(-c2ccc(CSc3nnc(-c4ccc5c(c4)OCCO5)o3)cc2)cn1 [Compound 13f, 2-(2,3-Dihydrobenzo[b][1,4]dioxin-6-yl)-5-((4-(6-fluoropyridin-3-yl)benzyl)thio)-1,3,4-oxadiazole]

solubility [2]: < 1 µg/mL
SMILES: Cc1ccc(-c2ccc(CSc3nnc(-c4ccc5c(c4)OCCO5)o3)cc2)nc1 [Compound 13e, 2-(2,3-Dihydrobenzo[b][1,4]dioxin-6-yl)-5-(4-(5-methylpyridin-2-yl)benzylthio)-1,3,4-oxadiazole]

inhibition at 0.1 µM (GSK-3α): 0%
inhibition at 0.1 µM (GSK-3β; read-out: GSK-3β Inhibition [%], 100 nM of compound): 0%
SMILES: N#Cc1cc(F)ccc1-c1ccc(CS(=O)(=O)c2nnc(-c3ccc4c(c3)OCCO4)o2)cc1 [Compound 26, 4′-((5-(2,3-Dihydrobenzo[b][1,4]dioxin-6-yl)-1,3,4-oxadiazol-2-yl-sulfonyl)methyl)-4-fluorbiphenyl-2-carbonitrile]

SMILES: NC(=O)c1cc(F)ccc1-c1ccc(CSc2nnc(-c3ccc4c(c3)OCCO4)o2)cc1 [Compound 27, 4′-((5-(2,3-Dihydrobenzo[b][1,4]dioxin-6-yl)-1,3,4-oxadiazol-2-yl-thio)-methyl)-4-fluorbiphenyl-2-carboxamide]
Tyr216 GSK-3β phosphorylation [3]: without any relevant effect
Lethality in zebrafish embryos [1]: no lethality; also recorded: without lethality
Zebrafish embryo phenotype at higher concentrations ([1]; in vivo): all zebrafish embryos showed a stunted and crooked tailed phenotype
Zebrafish embryo phenotype at lower concentrations ([1]; in vivo): no abnormalities were observed
IC50 (GSK-3β (h)): 14 nM
inhibition at 1 µM (GSK-3α): 100%
Morphological and surface marker changes [4]: consistent with AML differentiation
inhibition at 1 µM (GSK-3β): 100%
Methylcellulose colony formation (NB4 and HL-60 cell lines): colony formation impairment
solubility [2]: 34 µg/mL (≈ 73.4 µM)
Tyr279 GSK-3α phosphorylation [5]: concentration-dependent decrease
